In patent publication US5763208A, “Oligonucleotides and their analogs capable of passive cell membrane permeation” (Gilead Sciences, Inc., priority 1996, dated 1998):
Like-named read-outs stand apart in the source and are kept apart here.

Assays:
[1] = cited from earlier work
[2] = pH dependence of fluorescence of fluorescein; assay type: physicochemical
From the text: A preferred fluor is fluorescein.

[3] = system: most of the cell types tested
Experimental: Within 15 min after washing the dye away from the exterior of the cells, the intracellular pool of the dye is pumped out, either by an organic anion pump mechanism or by diffusion.
The cell staining assay utilized various cell lines and included P388D1 (mouse macrophage), HEPG2 (human liver), CV1 (monkey epithelial), ccd50sk (untransformed human fibroblast), Rat2 (rat fibroblast), MDCK (kidney cells), L6 (rat myoblast), L cells (mouse fibroblast), HeLa (human adenocarcinoma), skov3 (human ovarian adenocarcinoma), and skbr3 (human breast adenocarcinoma) cells. Other cell lines that were used included Jurkat (human T cell), H9 (human T cell), NIH3T3 (mouse fibroblast), HL60 (human T cell), and H4 (rat liver). All cell lines are commercially available from the American Type Culture Collection, Rockville, Md.
Cells were grown on 25 mm-#1 coverslips in media containing 25 mM HEPES, pH 7.3, (which helps maintain pH on the microscope) without phenol red (which can lead to high background fluorescence when working with living cells). Coverslips were used so that the high numerical aperture oil-immersion lenses on the microscope could be used. The coverslips were mounted onto "viewing chambers": 6-well petri dishes which have 22 mm holes drilled into the bottom. […]

[4] = known values of standard compounds used for the standard curve (Veith et al.)

Nc1ccccc1O [2-aminophenol]
Log Poct ([1]; octanol/water): 0.62

Nc1cccc(O)c1 [3-aminophenol]
Log Poct [1, 4]: 0.17

Nc1ccccc1 [aniline]
Log Poct [1, 4]: 0.9

O=C1OC2(c3ccc(O)cc3Oc3cc(O)ccc32)c2ccccc21 [fluorescein]
net charge ([2]; pH 5.0): net neutral charge | fluorescence at pH 5.0 relative to pH 7.5 ([2]; pH 5.0 vs pH 7.5): greater than an order of magnitude less fluorescent | net charge ([2]; pH 7.5): net negative charge | time in which the intracellular pool of the dye is pumped out [3]: ≤ 15 min | cell permeation of dye ([3]; not told): permeant to most of the cell types tested

Nc1ccccc1[N+](=O)[O-] [o-nitroaniline]
Log Poct [1, 4]: 1.44
